ChEMBL document CHEMBL4052759, “Discovery of DS79182026: A potent orally active hepcidin production inhibitor” (Bioorg Med Chem Lett, 2017)

What was measured:
[1] = target: T1, MAP kinase-activated protein kinase 5 (Homo sapiens) (UniProt Q8IW41); experiment: Inhibition of PRAK (unknown origin) at 0.078 uM relative to control
T1 sequence (whole entry): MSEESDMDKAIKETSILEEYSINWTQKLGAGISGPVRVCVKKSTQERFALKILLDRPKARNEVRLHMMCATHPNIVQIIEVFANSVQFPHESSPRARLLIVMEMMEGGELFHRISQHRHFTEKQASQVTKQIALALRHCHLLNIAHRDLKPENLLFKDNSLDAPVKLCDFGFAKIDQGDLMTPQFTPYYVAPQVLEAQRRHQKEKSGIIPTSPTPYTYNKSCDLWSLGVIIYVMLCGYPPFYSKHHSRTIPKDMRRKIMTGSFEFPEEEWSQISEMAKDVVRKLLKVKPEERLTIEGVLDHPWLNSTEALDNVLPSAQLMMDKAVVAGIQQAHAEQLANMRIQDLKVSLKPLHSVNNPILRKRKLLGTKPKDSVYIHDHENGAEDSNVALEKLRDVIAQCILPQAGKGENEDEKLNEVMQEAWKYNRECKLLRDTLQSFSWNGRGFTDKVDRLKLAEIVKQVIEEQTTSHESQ

[2] = target: Insulin-like growth factor 1 receptor (Homo sapiens) (UniProt P08069); experiment: Inhibition of IGF1R (unknown origin) at 0.078 uM relative to control
[3] = target: Aurora kinase C (Homo sapiens) (UniProt Q9UQB9); experiment: Inhibition of AurC (unknown origin) at 0.49 uM relative to control
[4] = target: SRSF protein kinase 3 (Homo sapiens) (UniProt Q9UPE1); experiment: Inhibition of MSSK1 (unknown origin) at 0.49 uM relative to control
[5] = target: SRSF protein kinase 2 (Homo sapiens) (UniProt P78362); experiment: Inhibition of SRPK2 (unknown origin) at 0.49 uM relative to control
[6] = target: Serine/threonine-protein kinase BRSK2 (Homo sapiens) (UniProt Q8IWQ3); experiment: Inhibition of BRSK2 (unknown origin) at 0.49 uM relative to control
[7] = target: Calcium/calmodulin-dependent protein kinase type II subunit alpha (Homo sapiens) (UniProt Q9UQM7); experiment: Inhibition of CaMK2a (unknown origin) at 0.49 uM relative to control
[8] = target: Serine/threonine-protein kinase MARK1 (Homo sapiens) (UniProt Q9P0L2); experiment: Inhibition of MARK1 (unknown origin) at 0.49 uM relative to control
[9] = target: Misshapen-like kinase 1 (Homo sapiens) (UniProt Q8N4C8); experiment: Inhibition of MINK (unknown origin) at 0.49 uM relative to control
[10] = target: Serine/threonine-protein kinase 4 (Homo sapiens) (UniProt Q13043); experiment: Inhibition of MST1 (unknown origin) at 0.49 uM relative to control
[11] = target: Serine/threonine-protein kinase PAK 3 (Homo sapiens) (UniProt O75914); experiment: Inhibition of PAK3 (unknown origin) at 0.49 uM relative to control
[12] = tested on: Epidermal growth factor receptor (Homo sapiens), P00533 [T790M]; experiment: Inhibition of EGFR T790M mutant (unknown origin) at 0.49 uM relative to control
[13] = target: Proto-oncogene tyrosine-protein kinase receptor Ret (Homo sapiens) (UniProt P07949); experiment: Inhibition of RET (unknown origin) at 0.49 uM relative to control
[14] = target: MAP/microtubule affinity-regulating kinase 3 (Homo sapiens) (UniProt P27448); experiment: Inhibition of c-TAK1 (unknown origin) at 0.49 uM relative to control
[15] = target: Protein kinase C alpha type (Homo sapiens) (UniProt P17252); experiment: Inhibition of PKC-alpha (unknown origin) at 0.49 uM relative to control
[16] = target: Ribosomal protein S6 kinase alpha-5 (Homo sapiens) (UniProt O75582); experiment: Inhibition of MSK1 (unknown origin) at 0.45 uM relative to control
[17] = target: Rho-associated protein kinase 2 (Homo sapiens) (UniProt O75116); experiment: Inhibition of ROCK2 (unknown origin) at 0.45 uM relative to control
[18] = target: Ribosomal protein S6 kinase alpha-1 (Homo sapiens) (UniProt Q15418); experiment: Inhibition of RSK1 (unknown origin) at 0.45 uM relative to control
[19] = target: Serine/threonine-protein kinase Nek1 (Homo sapiens) (UniProt Q96PY6); experiment: Inhibition of NEK1 (unknown origin) at 0.45 uM relative to control
[20] = target: Calcium/calmodulin-dependent protein kinase type 1 (Homo sapiens) (UniProt Q14012); experiment: Inhibition of CaMK1a (unknown origin) at 0.45 uM relative to control
[21] = tested on: Mitogen-activated protein kinase 14 (Homo sapiens), Q16539 [T106M]; experiment: Inhibition of SAPK2a T106M mutant (unknown origin) at 0.45 uM relative to control
[22] = target: Mitogen-activated protein kinase 12 (Homo sapiens) (UniProt P53778); experiment: Inhibition of p38-gamma (unknown origin) at 0.45 uM relative to control
[23] = target: Mitogen-activated protein kinase kinase kinase kinase 4 (Homo sapiens) (UniProt O95819); experiment: Inhibition of HGK (unknown origin) at 0.45 uM relative to control
[24] = target: Tyrosine-protein kinase Lyn (Homo sapiens) (UniProt P07948); experiment: Inhibition of LYNB (unknown origin) at 0.45 uM relative to control
[25] = target: Tyrosine-protein kinase BTK (Homo sapiens) (UniProt Q06187); experiment: Inhibition of BTK (unknown origin) at 0.45 uM relative to control
[26] = target: Protein-tyrosine kinase 2-beta (Homo sapiens) (UniProt Q14289); experiment: Inhibition of PYK2 (unknown origin) at 0.45 uM relative to control
[27] = target: MAP/microtubule affinity-regulating kinase 3 (Homo sapiens) (UniProt P27448); experiment: Inhibition of c-TAK1 (unknown origin) at 0.45 uM relative to control

Q: How did the inhibition [1] turn out when `COC(=O)Nc1noc2cc(-c3c(-c4ccccn4)n[nH]c3C)ccc12` was run?
A: Its inhibition is -3%.

Q: What about the inhibition [2] of the same molecule?
A: The inhibition was 2.3%.

Q: Which inhibition [3] does the source give for `Cc1[nH]nc(C2CC2)c1-c1ccc2c(NC(=O)C3CC3)noc2c1` here?
A: The inhibition was -3.3%.

Q: What about the inhibition [4] of the same molecule?
A: Its inhibition is 4%.

Q: What about the inhibition [5] of the same molecule?
A: Its inhibition is -2.3%.

Q: What about the inhibition [6] of the same molecule?
A: The inhibition was -2.3%.

Q: What about the inhibition [7] of the same molecule?
A: The inhibition was 1.3%.

Q: And the inhibition [8]?
A: Its inhibition is 3.3%.

Q: What about the inhibition [9] of the same molecule?
A: Its inhibition is -0.3%.

Q: And the inhibition [10]?
A: Its inhibition is 9.3%.

Q: And the inhibition [11]?
A: The inhibition was -4.3%.

Q: And the inhibition [12]?
A: The inhibition was 0.7%.

Q: What about the inhibition [13] of the same molecule?
A: Its inhibition is 15%.

Q: And the inhibition [14]?
A: Its inhibition is 6%.

Q: And the inhibition [15]?
A: Its inhibition is 2%.

Q: Which inhibition [16] does the source give for `Cc1n[nH]c(C)c1-c1ccc2c(NC(=O)c3ccc(N4CCN(C)CC4)cc3)n[nH]c2c1` here?
A: Its inhibition is 1.3%.

Q: And the inhibition [17]?
A: Its inhibition is 0.7%.

Q: And the inhibition [18]?
A: Its inhibition is 27.3%.

Q: What about the inhibition [19] of the same molecule?
A: The inhibition was 3.7%.

Q: And the inhibition [20]?
A: Its inhibition is -0.7%.

Q: What about the inhibition [21] of the same molecule?
A: Its inhibition is 1.3%.

Q: What about the inhibition [22] of the same molecule?
A: The inhibition was 0%.

Q: What about the inhibition [23] of the same molecule?
A: Its inhibition is 73.3%.

Q: And the inhibition [24]?
A: The inhibition was 24.3%.

Q: And the inhibition [25]?
A: The inhibition was 5%.

Q: And the inhibition [26]?
A: Its inhibition is 4.7%.

Q: And the inhibition [27]?
A: The inhibition was 15%.
